These results are taken from PMC12051620, “Molecular basis underlying the specificity of an antagonist AA92593 for mammalian melanopsins” (The Journal of Biological Chemistry, 2025).

The assay deals with T1, human melanopsin (Homo sapiens, UniProt Q9UHM6).
T1 sequence (Q9UHM6 1-384 limits assumed): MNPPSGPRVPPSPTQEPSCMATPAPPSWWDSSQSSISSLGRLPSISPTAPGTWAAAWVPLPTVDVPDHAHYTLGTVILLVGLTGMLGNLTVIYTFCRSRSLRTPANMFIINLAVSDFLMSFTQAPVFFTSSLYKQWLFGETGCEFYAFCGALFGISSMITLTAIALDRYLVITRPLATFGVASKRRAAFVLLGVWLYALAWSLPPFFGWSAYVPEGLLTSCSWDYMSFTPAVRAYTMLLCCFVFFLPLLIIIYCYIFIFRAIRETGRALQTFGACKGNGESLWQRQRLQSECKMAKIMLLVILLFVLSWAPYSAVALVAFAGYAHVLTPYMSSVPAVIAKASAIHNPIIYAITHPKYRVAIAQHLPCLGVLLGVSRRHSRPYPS
The assay is described as follows: GsX GloSensor assay with Gsα/i11. It is filed as cell-based. Further details: the C-terminal amino acid residues (94, 140, 200, 214, 296, and 308 residues); expressed in transfected cells; host or cells: COS-1. The note with it: 16.7 μM AA92593; COS-1 cells. The source says: Previous studies of human and mouse melanopsins reported that these melanopsins can activate not only Gq but Gs and Gi ([20], [21], [22]). Thus, we assessed the effect of AA92593 on Gsα WT or Gsα/i11 (with 11 C-terminal sequence of Giα) using the GsX GloSensor assay. In agreement with the promiscuous G protein-coupling of melanopsins, we observed light-dependent increase of GloSensor luminescence in COS-1 cells expressing Gsα or Gsα/i11 with human/mouse melanopsins (Fig. 1, G–J).
For GloSensor assay, opsins, GloSensor assay sensor (coded by pGlo-22F), and NanoBiT-tagged G proteins were transiently expressed in COS-1 cells (kindly provided from Dr David Farrens, Oregon Health and Science University) using PEI as described previously ([24], [52]). […] For GFP-fluorescence microscopy, a 35-mm cell culture dish (IWAKI) was transfected with 2 μg melanopsin-GFP plasmid and 8 μg PEI in 400 μl Opti-mem and 1.2 ml D-MEM. […]
The transfected COS-1 cells were incubated at 37 °C, 5% CO2 for 2 days, and the medium was aspirated and exchanged with 50 μl of HBSS (145 mM NaCl, 10 mM D-glucose, 5 mM KCl, 1 mM MgCl2, 1.7 mM CaCl2, 1.5 mM NaHCO3, 10 mM Hepes, pH 7.4), containing 33.3, 20, 10, 2, 0.2, 0.02, 0.002, or 0 μM AA92593, 0.5% dimetyl sulfoxide (DMSO), and 4% (vol/vol) GloSensor cAMP reagent stock solution. […] Luminescence was measured using GM-2000 or GM-3510 microplate reader (Promega). […]

As to `COc1ccc(S(=O)(=O)N2CCCCC2)cc1C` [AA92593], the “effect on melanopsin-induced cAMP responses via Gsα/i11” value is listed as “can suppress”.
